{
  "source": "patent US10457710B2",
  "about": "“Antimicrobial peptides, their variants and uses” (priority 2015, dated 2019)",
  "assay_type_in_all_cases": "cell-based",
  "key": {"[1]": {"test_system": "C. parapsilosis", "assay": "MIC, clinical yeast strains", "outline": "(§1)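 Clinical isolates were exposed to peptide concentrations from 0.125 up to 128 μg/ml at a starting density of 5.0×10^5 cfu/ml. Antifungal testing took place in potato dextrose broth at 37° C for 20 to 24 hours, and the end point was the absence of visible growth.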"}, "[2]": {"test_system": "C. glabrata", "assay": "MIC, clinical yeast strains", "outline": "as §1"}, "[3]": {"test_system": "Candida albicans", "assay": "MIC, clinical yeast strains", "outline": "as §1"}, "[4]": {"test_system": "C. quillermondiae", "assay": "MIC, clinical yeast strains", "set-up": "Minimum inhibitory concentration: unit: μg/ml", "conditions": "C. quillermondiae clinical yeast strain 1", "outline": "as §1"}, "[5]": {"test_system": "clinical strains of Acinetobacter baumannii", "assay": "MIC, microdilution, clinical strains", "set-up": "unit: μg/ml", "conditions": "0.02% BSA, 0.2% acetic acid", "outline": "(§2)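 MIC = lowest peptide concentration without visual growth after 20–24 h at 37° C. Range 0.125–128 μg/ml, inoculum 5.0×10^5 cfu/ml, microdilution format. Antifungal tests used potato dextrose broth; bacterial tests used MH broth.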"}, "[6]": {"test_system": "clinical strains of A. johnsonii", "assay": "MIC, microdilution, clinical strains", "set-up": "unit: μg/ml", "conditions": "Acinetobacter johnsonii strain 1, Muller Hinton broth-cation adjusted, 0.02% BSA, 0.2% acetic acid", "outline": "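For A. johnsonii, Mueller Hinton broth; for the clinical yeasts, Potato dextrose broth. In both, 5.0×10^5 cfu/ml was exposed to peptide over 0.125–128 μg/ml for 20–24 h at 37 °C, and MIC was read as the lowest concentration showing no visual growth.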"}, "[7]": {"test_system": "clinical strains of S. pneumoniae", "assay": "MIC, microdilution, clinical strains", "conditions": "0.02% BSA, 0.2% acetic acid", "outline": "as §2"}, "[8]": {"test_system": "clinical strains of K. pneumoniae", "assay": "MIC, microdilution, clinical strains", "conditions": "0.02% BSA, 0.2% acetic acid", "outline": "as §2"}, "[9]": {"test_system": "clinical strains of E. cloacae", "assay": "MIC, microdilution, clinical strains", "conditions": "0.02% BSA, 0.2% acetic acid", "outline": "as §2"}, "[10]": {"test_system": "clinical strains of S. aureus", "assay": "MIC, microdilution, clinical strains", "conditions": "0.02% BSA, 0.2% acetic acid", "outline": "as §2"}, "[11]": {"test_system": "clinical strains of Serratia marcescens", "assay": "MIC, microdilution, clinical strains", "conditions": "0.02% BSA, 0.2% acetic acid", "outline": "as §2"}, "[12]": {"test_system": "clinical strains of Proteus mirabilis", "assay": "MIC, microdilution, clinical strains", "conditions": "0.02% BSA, 0.2% acetic acid", "outline": "as §2"}, "[13]": {"test_system": "clinical strains of P. aeruginosa", "assay": "MIC, microdilution, clinical strains", "conditions": "0.02% BSA, 0.2% acetic acid", "outline": "as §2"}, "[14]": {"test_system": "clinical strains of E. coli", "assay": "MIC, microdilution, clinical strains", "outline": "as §2"}},
  "note": "Where a SMILES comes first, the peptide text is derived from it. [ ]: non-standard residue; d: D form.",
  "data": [
    {"smiles": "CC(C)C[C@@H](NC(=O)[C@H](N)CCCNC(=N)N)C(=O)N[C@H](CCCCN)C(=O)N[C@H](CCCNC(=N)N)C(=O)N[C@H](Cc1c[nH]c2ccccc12)C(=O)N[C@H](CCCNC(=N)N)C(=O)N[C@H](CC(C)C)C(=O)N[C@H](Cc1ccccc1)C(=O)N[C@H](CCCNC(=N)N)C(=O)N[C@H](CCCCN)C(=O)N[C@H](CCCNC(=N)N)C(=O)O", "note": "[Chain306D] (H-[dR][dL][dK][dR][dW][dR][dL][dF][dR][dK][dR]-OH)", "values": [
      {"measurement": "Minimum inhibitory concentration", "setting": "[1]; C. parapsilosis clinical yeast strain 1", "result": 8},
      {"measurement": "Minimum inhibitory concentration", "setting": "[1]; C. parapsilosis clinical yeast strain 2", "result": 16},
      {"measurement": "Minimum inhibitory concentration", "setting": "[1]; C. parapsilosis clinical yeast strain 3", "result": 16},
      {"measurement": "Minimum inhibitory concentration", "setting": "[1]; C. parapsilosis clinical yeast strain 4", "result": 4},
      {"measurement": "Minimum inhibitory concentration", "setting": "[2]; C. glabrata clinical yeast strain 1", "result": 8},
      {"measurement": "Minimum inhibitory concentration", "setting": "[2]; C. glabrata clinical yeast strain 2", "result": 8},
      {"measurement": "Minimum inhibitory concentration", "setting": "[2]; C. glabrata clinical yeast strain 3", "result": 16},
      {"measurement": "Minimum inhibitory concentration", "setting": "[2]; C. glabrata clinical yeast strain 4", "result": 32},
      {"measurement": "Minimum inhibitory concentration", "setting": "[3]; Candida albicans clinical yeast strain 1", "result": 16},
      {"measurement": "Minimum inhibitory concentration", "setting": "[3]; Candida albicans clinical yeast strain 2", "result": 8},
      {"measurement": "Minimum inhibitory concentration", "setting": "[3]; Candida albicans clinical yeast strain 3", "result": 8},
      {"measurement": "Minimum inhibitory concentration", "setting": "[3]; Candida albicans clinical yeast strain 4", "result": 16},
      {"measurement": "Minimum inhibitory concentration", "setting": "[3]; Candida albicans clinical yeast strain 5", "result": 16},
      {"measurement": "Minimum inhibitory concentration", "setting": "[4]", "result": 4},
      {"measurement": "Minimum inhibitory concentration", "setting": "[5]; Acinetobacter baumannii strain 1, Muller Hinton broth-cation adjusted", "result": 16},
      {"measurement": "Minimum inhibitory concentration", "setting": "[5]; Acinetobacter baumannii strain 2, Muller Hinton broth-cation adjusted", "result": 32},
      {"measurement": "Minimum inhibitory concentration", "setting": "[5]; Acinetobacter baumannii strain 3, Muller Hinton broth-cation adjusted", "result": 16},
      {"measurement": "Minimum inhibitory concentration", "setting": "[5]; Acinetobacter baumannii strain 4, Muller Hinton broth-cation adjusted", "result": 16},
      {"measurement": "Minimum inhibitory concentration", "setting": "[5]; Acinetobacter baumannii strain 5, Muller Hinton broth-cation adjusted", "result": 8},
      {"measurement": "Minimum inhibitory concentration", "setting": "[6]", "result": 16},
      {"measurement": "Minimum inhibitory concentration", "setting": "[7]; Streptococcus pneumoniae strain 1, Muller Hinton broth-cation adjusted", "result": 64},
      {"measurement": "Minimum inhibitory concentration", "setting": "[7]; Streptococcus pneumoniae strain 2, Muller Hinton broth-cation adjusted", "result": 64},
      {"measurement": "Minimum inhibitory concentration", "setting": "[7]; Streptococcus pneumoniae strain 3, Muller Hinton broth-cation adjusted", "result": 64},
      {"measurement": "Minimum inhibitory concentration", "setting": "[7]; Streptococcus pneumoniae strain 4, Muller Hinton broth-cation adjusted", "result": 128},
      {"measurement": "Minimum inhibitory concentration", "setting": "[7]; Streptococcus pneumoniae strain 5, Muller Hinton broth-cation adjusted", "result": 64},
      {"measurement": "Minimum inhibitory concentration", "setting": "[8]; Klebsiella pneumoniae strain 1, Muller Hinton broth-cation adjusted", "result": 128},
      {"measurement": "Minimum inhibitory concentration", "setting": "[8]; Klebsiella pneumoniae strain 2, Muller Hinton broth-cation adjusted", "result": ">128"},
      {"measurement": "Minimum inhibitory concentration", "setting": "[8]; Klebsiella pneumoniae strain 3, Muller Hinton broth-cation adjusted", "result": ">128"},
      {"measurement": "Minimum inhibitory concentration", "setting": "[8]; Klebsiella pneumoniae strain 4, Muller Hinton broth-cation adjusted", "result": 64},
      {"measurement": "Minimum inhibitory concentration", "setting": "[8]; Klebsiella pneumoniae strain 5, Muller Hinton broth-cation adjusted", "result": 64},
      {"measurement": "Minimum inhibitory concentration", "setting": "[9]; Enterobacter cloacae strain 1, Muller Hinton broth-cation adjusted", "result": 64},
      {"measurement": "Minimum inhibitory concentration", "setting": "[9]; Enterobacter cloacae strain 2, Muller Hinton broth-cation adjusted", "result": 64},
      {"measurement": "Minimum inhibitory concentration", "setting": "[9]; Enterobacter cloacae strain 3, Muller Hinton broth-cation adjusted", "result": 32},
      {"measurement": "Minimum inhibitory concentration", "setting": "[9]; Enterobacter cloacae strain 4, Muller Hinton broth-cation adjusted", "result": 16},
      {"measurement": "Minimum inhibitory concentration", "setting": "[9]; Enterobacter cloacae strain 5, Muller Hinton broth-cation adjusted", "result": 16},
      {"measurement": "Minimum inhibitory concentration", "setting": "[10]; Staphylococcus aureus strain 1, Muller Hinton broth-cation adjusted", "result": 16},
      {"measurement": "Minimum inhibitory concentration", "setting": "[10]; Staphylococcus aureus strain 2, Muller Hinton broth-cation adjusted", "result": 32},
      {"measurement": "Minimum inhibitory concentration", "setting": "[10]; Staphylococcus aureus strain 3, Muller Hinton broth-cation adjusted", "result": 32},
      {"measurement": "Minimum inhibitory concentration", "setting": "[10]; Staphylococcus aureus strain 4, Muller Hinton broth-cation adjusted", "result": 16},
      {"measurement": "Minimum inhibitory concentration", "setting": "[10]; Staphylococcus aureus strain 5, Muller Hinton broth-cation adjusted", "result": 8},
      {"measurement": "Minimum inhibitory concentration", "setting": "[11]; Serratia marcescens strain 1, Muller Hinton broth-cation adjusted", "result": ">128"},
      {"measurement": "Minimum inhibitory concentration", "setting": "[11]; Serratia marcescens strain 2, Muller Hinton broth-cation adjusted", "result": ">128"},
      {"measurement": "Minimum inhibitory concentration", "setting": "[11]; Serratia marcescens strain 3, Muller Hinton broth-cation adjusted", "result": ">128"},
      {"measurement": "Minimum inhibitory concentration", "setting": "[11]; Serratia marcescens strain 4, Muller Hinton broth-cation adjusted", "result": ">128"},
      {"measurement": "Minimum inhibitory concentration", "setting": "[11]; Serratia marcescens strain 5, Muller Hinton broth-cation adjusted", "result": ">128"},
      {"measurement": "Minimum inhibitory concentration", "setting": "[12]; Proteus mirabilis strain 1, Muller Hinton broth-cation adjusted", "result": ">128"},
      {"measurement": "Minimum inhibitory concentration", "setting": "[12]; Proteus mirabilis strain 2, Muller Hinton broth-cation adjusted", "result": ">128"},
      {"measurement": "Minimum inhibitory concentration", "setting": "[12]; Proteus mirabilis strain 3, Muller Hinton broth-cation adjusted", "result": ">128"},
      {"measurement": "Minimum inhibitory concentration", "setting": "[12]; Proteus mirabilis strain 4, Muller Hinton broth-cation adjusted", "result": ">128"},
      {"measurement": "Minimum inhibitory concentration", "setting": "[12]; Proteus mirabilis strain 5, Muller Hinton broth-cation adjusted", "result": ">128"},
      {"measurement": "Minimum inhibitory concentration", "setting": "[13]; Pseudomonas aeruginosa strain 1, Muller Hinton broth-cation adjusted", "result": 128},
      {"measurement": "Minimum inhibitory concentration", "setting": "[13]; Pseudomonas aeruginosa strain 2, Muller Hinton broth-cation adjusted", "result": ">128"},
      {"measurement": "Minimum inhibitory concentration", "setting": "[13]; Pseudomonas aeruginosa strain 3, Muller Hinton broth-cation adjusted", "result": 128},
      {"measurement": "Minimum inhibitory concentration", "setting": "[13]; Pseudomonas aeruginosa strain 4, Muller Hinton broth-cation adjusted", "result": ">128"},
      {"measurement": "Minimum inhibitory concentration", "setting": "[13]; Pseudomonas aeruginosa strain 5, Muller Hinton broth-cation adjusted", "result": 128},
      {"measurement": "Minimum inhibitory concentration", "setting": "[14]; Escherichia coli strain 1, microdilution, Muller Hinton broth-cation adjusted, 0.02% BSA, 0.2% acetic acid", "result": 1},
      {"measurement": "Minimum inhibitory concentration", "setting": "[14]; Escherichia coli strain 2, microdilution, Muller Hinton broth-cation adjusted, 0.02% BSA, 0.2% acetic acid", "result": 2},
      {"measurement": "Minimum inhibitory concentration", "setting": "[14]; Escherichia coli strain 3, microdilution, Muller Hinton broth-cation adjusted, 0.02% BSA, 0.2% acetic acid", "result": 2},
      {"measurement": "Minimum inhibitory concentration", "setting": "[14]; Escherichia coli strain 4, microdilution, Muller Hinton broth-cation adjusted, 0.02% BSA, 0.2% acetic acid", "result": 2},
      {"measurement": "Minimum inhibitory concentration", "setting": "[14]; Escherichia coli strain 5, microdilution, Muller Hinton broth-cation adjusted, 0.02% BSA, 0.2% acetic acid", "result": 2},
      {"measurement": "Minimum inhibitory concentration", "setting": "[14]; clinical strains, peptide synthesized as D-form amino acids", "result": 1, "unit": "µg/mL"}
    ]}
  ]
}
